A short description of the series: Aqueous solubility of compound at pH 6.5 by shake-flask method. In kind it is physicochemical. The settings on record: aqueous medium.

This note sets out measurements from ChEMBL document CHEMBL3797023, “Irregularities in enzyme assays: The case of macrophage migration inhibitory factor” (Bioorg Med Chem Lett, 2016).

In general, thermodynamic solubility refers to solubility found after equilibrating the solid with the medium.

Values after ≈ are worked out from the molar mass of the structure shown.

In the case of `COc1ccc(C(=O)O)cc1NC(=S)NC(=O)c1cc2ccccc2o1`, the thermodynamic solubility is < 5 µg/mL. Consider `Oc1cc2c(cc1C(c1ccc(C(F)(F)F)cc1)N1CCOCC1)OCO2` (configuration not stated), for which the thermodynamic solubility was 27.6 µg/mL (≈ 72.4 µM). Turning to `O=C(O)c1cccc(NC(=S)NC(=O)c2ccc(-c3ccccc3)cc2)c1`, the solubility (thermodynamic) is < 1 µg/mL. With `Oc1ccc(-n2cc(-c3ccc4cc(OCCOCCN5CCOCC5)ccc4n3)nn2)cc1`, the thermodynamic solubility came out at 48.5 µg/mL (≈ 105 µM).

Turning to `Cc1ccc2oc(=O)n(Cc3cccc(O)c3)c2c1`, the thermodynamic solubility came out at 21.9 µg/mL (≈ 85.8 µM). `COCCOc1ccc2nc(-c3cn(-c4ccc(O)cc4)nn3)ccc2c1`: the solubility (thermodynamic) came out at 3.6 µg/mL (≈ 9.93 µM). Under `COc1cc(-c2nc3ccccc3s2)cc(Br)c1OCC(=O)O` stands 6 µg/mL (≈ 15.2 µM).
